Measurements reported in patent US7217559B2, “Gene encoding cyclododecanone monooxygenase” (National Research Council of Canada, priority 2002, dated 2007).

Experiments:
[1] = test system: cyclododecanone monooxygenase (CDMO); assay: Substrate specificity of cloned CDMO (relative activity towards cyclic ketones); assay type: biochemical, Pseudomonas putida strain HI-70; conditions: ketone as substrate, cyclododecanone = 100%
[2] = test system: cyclododecanone monooxygenase (CDMO); assay: Comparison of CDMO activity in E. coli and native HI-70; assay type: biochemical, Pseudomonas putida strain HI-70

## O=C1CCCCCCCCC1 [cyclodecanone]
[1]
  relative activity: 10%

## O=C1CCCCCCCCCCC1 [cyclododecanone]
[1]
  relative activity: 100%

## O=C1CCCCCCCCCCCCCC1 [cyclopentadecanone]
[1]
  relative activity: 144%

## O=C1CCCCCCCCCCCC1 [cyclotridecanone]
[1]
  relative activity: 138%

## O=C1CCCCCCCCCC1 [cycloundecanone]
[1]
  relative activity: 56%

B1: CDMO: cyclododecanone monooxygenase of Pseudomonas putida HI-70, encoded by cdnB, amino acid sequence SEQ ID NO:8 (protein)
chain: MSQLIQEPAEAGVTSQKVSFDHVALREKYRQERDKRLRQDGQEQYLEVAVTCDEYLKDPYADPIVRDPVVRETDVFIIGGGFGGLLAAVRLQQAGVSDYVMVERAGDYGGTWYWNRYPGAQCDIESYVYMPLLEEMGYIPTEKYAFGTEILEYSRSIGRKFGLYERTYFQTEVKDLSWDDEAARWRITTDRGDKFSARFVCMSTGPLQRPKLPGIPGITSFKGHSFHTSRWDYSYTGGDQTGNLEGLKDKRVAIIGTGATSIQAVPHLAAYAQELYVIQRTPISVGFRGNKPTDPEWAKSLQPGWQQARMDNFNAITHGMPVDVDLVQDSWTKIFGEIGVFLGSDGSRAQMVDFQLMEQIRARVDQEVKDPATAESLKPYYNIMCKRPGFHDSYLPSFNKPNVTLVDTQGAGVERITEKGLVVNGREYEVDCLIYATGFEYQTKLSRRNGYEIHGRNGQPLSDKWKDGLSTLWGYHIRDFPNCFILGNGQSAVTPNFTHMLNEAGKHVAYVVKHCLDERVDVFEPTAEAEQAWVDHVMSFAGIKQQYDRECTPSYYNNEGQVNDVALTRTTSTRAVRSLINILREWREKGDFAQFQQRKR
modifications: Primer
[2]; from E. coli DH5α(pSD-cdnB)
  CDMO activity: 0.48 U/mg of protein
[2]; original P. putida strain HI-70
  CDMO activity: 0.14 U/mg of protein
